14 compounds from US11096939B2, “KRAS G12C inhibitors and methods of using the same” (Amgen Inc., priority 2018, dated 2021) can be followed below.

For this assay, the target named is GDP-bound KRAS protein (aa 1-169), containing both G12C and C118A amino acid substitutions (Homo sapiens, UniProt P01116, C118A/G12C). In words: Coupled nucleotide exchange assay (SOS-mediated, AlphaScreen). In kind it is biochemical. Particulars: compound pre-incubation either 5 min or 2 hours (not stated per value); SOS and GTP added, cRAF AlphaScreen readout. On the procedure: Coupled Nucleotide Exchange Assay:
Following compound pre-incubation, purified SOS protein (aa 564-1049) and GTP (Roche 10106399001) were added to the assay wells and incubated for an additional 30 min (for 5 min compound pre-incubation) or 1 hour (for 2 hour compound pre-incubation). To determine the extent of inhibition of SOS-mediated nucleotide exchange, purified GST-tagged cRAF (aa 1-149), nickel chelate AlphaLISA acceptor beads (PerkinElmer AL108R), and AlphaScreen glutathione donor beads (PerkinElmer 6765302) were added to the assay wells and incubated for 10 minutes. The assay plates were then read on a PerkinElmer EnVision Multilabel Reader, using AlphaScreen® technology, and data were analyzed using a 4-parameter logistic model to calculate IC50 values.
On the technique in general: In Alpha technology, singlet oxygen from a donor bead excites a nearby acceptor bead.

Sequence of GDP-bound KRAS protein (aa 1-169), containing both G12C and C118A amino acid substitutions (P01116 1-169 isoform P01116-2 G12C/C118A): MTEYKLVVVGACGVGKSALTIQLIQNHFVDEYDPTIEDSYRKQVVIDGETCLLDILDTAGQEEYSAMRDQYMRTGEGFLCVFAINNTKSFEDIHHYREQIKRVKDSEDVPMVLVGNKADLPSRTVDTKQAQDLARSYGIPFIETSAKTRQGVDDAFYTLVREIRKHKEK

Regarding `C=CC(=O)N1C[C@H](C)N(C2=NC(=O)C(C)(C3CCCC3)c3nc(-c4ccccc4F)c(Cl)cc32)C[C@H]1C` (mixture of isomers) [Example 1-1, 5-((2S,5R)-4-Acryloyl-2,5-dimethylpiperazin-1-yl)-3-chloro-8-cyclopentyl-2-(2-fluorophenyl)-8-methyl-1,6-naphthyridin-7(8H)-one], the “Coupled Exchange IC50” value was found to be 2.68 µM.
Turning to `C=CC(=O)N1C[C@H](C)N(C2=NC(=O)C(C)(C3CCCC3)c3nc(-c4ccccc4F)c(Cl)cc32)C[C@H]1C` (single isomer, unassigned) [Example 1-1-1], the “Coupled Exchange IC50” value worked out at 250 µM.
As to `C=CC(=O)N1C[C@H](C)N(C2=NC(=O)C(C)(c3ccccc3)c3nc(-c4ccccc4F)c(Cl)cc32)C[C@H]1C` (single isomer, unassigned) [Example 1-5-1], the “Coupled Exchange IC50” value worked out at 186 µM.
Then `C=CC(=O)N1CCN(C2=NC(=O)C(C)(CC(C)C)c3nc(-c4ccccc4F)c(Cl)cc32)[C@@H](C)C1` (stereo partly drawn) [Example 3-1, 5-((S)-4-Acryloyl-2-methylpiperazin-1-yl)-3-chloro-2-(2-fluorophenyl)-8-isobutyl-8-methyl-1,6-naphthyridin-7(8H)-one], with 14.3 µM.
For `C=CC(=O)N1C[C@H](C)N(C2=NC(=O)C(C)(CC)c3nc(-c4ccccc4F)c(Cl)cc32)C[C@H]1C` (stereo partly drawn) [Example 1-4, 5-((2S,5R)-4-Acryloyl-2,5-dimethylpiperazin-1-yl)-3-chloro-8-ethyl-2-(2-fluorophenyl)-8-methyl-1,6-naphthyridin-7(8H)-one], the “Coupled Exchange IC50” value turned out to be 19.3 µM.
Then `C=CC(=O)N1C[C@H](C)N(C2=NC(=O)C(C)(C3CC3)c3nc(-c4ccccc4F)c(Cl)cc32)C[C@H]1C` (single isomer, unassigned) [Example 1-2-2], with >250 µM; and `C=CC(=O)N1C[C@H](C)N(C2=NC(=O)C(C)(C3CCC3)c3nc(-c4ccccc4F)c(Cl)cc32)C[C@H]1C` (single isomer, unassigned) [Example 1-3-1], with 201 µM.
In the case of `C=CC(=O)N1C[C@H](C)N(C2=NC(=O)C(C)(c3ccccc3)c3nc(-c4ccccc4F)c(Cl)cc32)C[C@H]1C` (stereo partly drawn) [Example 1-5, 5-((2S,5R)-4-Acryloyl-2,5-dimethylpiperazin-1-yl)-3-chloro-2-(2-fluorophenyl)-8-methyl-8-phenyl-1,6-naphthyridin-7(8H)-one] it was 25.9 µM; in that of `C=CC(=O)N1CCN(C2=NC(=O)C(C)(CC(C)C)c3nc(-c4ccccc4F)c(Cl)cc32)[C@@H](C)C1` (single isomer, unassigned) [Example 3-1-1], 94.7 µM.
Then `C=CC(=O)N1C[C@H](C)N(C2=NC(=O)C(C)(C3CCCC3)c3nc(-c4ccccc4F)c(Cl)cc32)C[C@H]1C` (single isomer, unassigned) [Example 1-1-2], with 1.43 µM.
Turning to `C=CC(=O)N1C[C@H](C)N(C2=NC(=O)C(C)(c3ccccc3)c3nc(-c4ccccc4F)c(Cl)cc32)C[C@H]1C` (single isomer, unassigned) [Example 1-5-2], the “Coupled Exchange IC50” value is 14.9 µM.
With `C=CC(=O)N1C[C@H](C)N(C2=NC(=O)C(C)(CC(C)C)c3nc(-c4ccccc4F)c(Cl)cc32)C[C@H]1C` (single isomer, unassigned) [Example 1-8-1], the “Coupled Exchange IC50” value amounted to 53.8 µM.
In the case of `C=CC(=O)N1C[C@H](C)N(C2=NC(=O)C(C3CC3)(C3CC3)c3nc(-c4ccccc4F)c(Cl)cc32)C[C@H]1C` [Example 2-1, 5-((2S,5R)-4-Acryloyl-2,5-dimethylpiperazin-1-yl)-3-chloro-8,8-dicyclopropyl-2-(2-fluorophenyl)-1,6-naphthyridin-7(8H)-one] it was 18.6 µM.
Then `C=CC(=O)N1C[C@H](C)N(C2=NC(=O)C(C)(CC)c3nc(-c4ccccc4F)c(Cl)cc32)C[C@H]1C` (single isomer, unassigned) [Example 1-4-2], with 139 µM.
